Reference: patent US20260049337A1, “A R[…] A[…] OF INHIBITING TUMOR P[…] […] TIME IN TUMOR-BEARING I[…] USE THEREOF” (NANJING VIROTHER BIOPHARMACEUTICAL CO., LTD., priority 2022, published 2026)

Columns and labels:
[1] = tested on: LCN2 expression in CD8+ T cells; experiment: Panc02 cells cocultured with CD8+ T cells, flow cytometry for LCN2; assay type: cell-based; conditions: coculture with Panc02 for 24 h; vs coculture without GLP1(7-36), p<0.01
Description: Panc02 cells were cocultured with CD8+ T cells with or without GLP1(7-36) for 24 h, then T cells were subjected to flow cytometry for determination of LCN2 expression (FIG. 28A).

[2] = tested on: LCN2 expression in CD8+ T cells; experiment: CD8+ T cells cultivated with Panc02 supernatant, FACScan for Lcn2; assay type: cell-based; conditions: 24 h, vs absence of agonist, p<0.001
Description: Panc02 cells were cultivated in DMEM for 48 h, then supernatant was harvested and added into CD8+ T cells for further 24 h cultivation in the presence or absence of GLP1(7-36) or GLP1 analogue (Liraglutide) followed by FACScan for Lcn2 determination (FIG. VI(B)-3B).

GLP-1(7-36): GLP-1 receptor agonist peptide, SEQ ID NO: 1, HAEGTFTSDVSSYLEGQAAKEFIAWLVKGR
Lcn2 expression in CD8+ T cells [1]: statistically significantly reduced | Lcn2 expression in CD8+ T cells [2]: statistically significantly reduced
